This note sets out measurements from patent US8557290B2, “Multifunction nanoconjugates for imaging applications and targeted treatment” (priority 2008, dated 2013).

Data set [1] relates to plasmid DNA (pKaede-MN1 plasmid with R18 insert). In words: Light-induced plasmid DNA cleavage, agarose gel electrophoresis. The class given is biochemical.
Description: Reactions containing plasmid DNA and either buffer, alizarin red s, TiO2 nanoparticles, or alizarin red s-coated TiO2 nanoparticles were incubated at 37° C. for 10 minutes and either kept in the dark or illuminated with a 75 watt halogen bulb for 5-10 minutes (FIG. 36). Samples were then run via electrophoresis at 50 volts for 4 hours on a 1.25% agarose gel and scanned on a Typhoon Trio multi-mode imager to visualize the different resulting configurations of plasmid DNA (FIG. 36). […] To confirm the identities of plasmid configurations resulting from excitation of alizarin red s-coated TiO2 nanoparticles, supercoiled, nicked, and linearized plasmid DNA bands were excised and purified from the agarose gel.
The role of the latter was investigated by expanding upon previous experiments and using TiO2 nanoparticles that were coated with glycidyl isopropyl ether (GIE), which reduces interaction between the nanoparticle surface and its surrounding environment (Paunesku et al Nat. Mater. 2003, 2, 343-346; Rajh et al Nano Lett. 2004, 4, 1017-1023). Plasmid samples containing either GIE, GIE and alizarin red s, or GIE-alizarin red s-coated TiO2 nanoparticles were illuminated for 5 minutes with 150W halogen bulb (FIG. 39).
The effect of conjugating different peptide nucleic acid sequences to GIE-alizarin-coated TiO2 nanoparticles on DNA cleavage was investigated (FIG. 40A).
Another data set relates to PC-3M cells. Particulars: human, 24 h, 20 mM.
A short description of a further data set: in vitro. Particulars: rat.
The subject of data set [2] is MCF-7 cells. Briefly: Intracellular localization by confocal fluorescent microscopy. Particulars: 1 hour treatment.
For data set [3], the system named is MCF-7/WS8 breast cancer cells. Briefly: MRI T1 and signal intensity of MCF-7 cells transfected with SuperFect reagent, in agarose phantoms. In kind it is cell-based, human. To be noted: for T1 value, Equation method / T1 value, Null point method / Signal intensity: SuperFect; for T1 value, Equation method / T1 value, Null point method: 48 hours after treatment, 1.5 T; for Signal intensity: T1-weighted. The method, then:
For transfection experiments MCF-7/W8/WS8 breast cancer cells (American Type Culture Collection, ATCC, Manassas, Va.) and PC3-M prostate cancer cells (ATCC) were grown in a 5% CO2 humidified atmosphere in RPMI1640 cell culture medium (this and all other standard cell culture supplements were from Invitrogen/Gibco, Carlsbad, Calif.) supplemented with 10% fetal bovine serum and antibiotic-antimycotic. MCF-7/WS8 medium also contained insulin at a concentration of 10 μg/mL (Sigma, St. Louis, Mo.), 200 mM 1-glutamine, and 10 mM nonessential amino acids; PC3-M medium also contained 25 μg/mL G418 and 2.4 mg/mL HEPES. Nearly confluent cells were serum-starved for 16 to 20 hours before transfection or treatment.
For SuperFect transfection, 60 μL of SuperFect reagent (Qiagen, Valencia, Calif.) and 300 μL of any one of the following: (1) Gd contrast agent, (2) TiO2 nanoparticles, or (3) TiO2-DNA-Gd nanoconjugates were used; these mixtures were applied onto 16 million cells each. Final concentrations of these agents in the medium were (1) 144 μM Gd; (2) 0.12 μM TiO2 nanoparticles, or (3) TiO2-DNA-Gd nanoconjugates wherein TiO2 nanoparticles were 0.12 μM and Gd was 75.6 μM in concentration. Media were exchanged for fresh complete cell media 24 hours later and, after an additional 24-hour incubation, cells were harvested for imaging.
In all cases, cells harvested for MRI were embedded in 300 μL agarose phantoms. Once the MRI was completed, these phantoms were used for ICP-MS and/or preparation of paraffin-embedded samples for sectioning and imaging by x-ray fluorescence microscopy.
To prepare samples for MRI, 150 μL of Hank's balanced buffered salt solution (HBBS; Invitrogen/Gibco) containing cells were mixed with 2% agarose melted in 150 μL of HBBS. Cells in agarose solidified as a plug and were transferred into tubes, placed in a water bath, and imaged using a 1.5 T Siemens Sonata system (Erlangen, Germany) with a four-channel head coil for signal reception and body coil for excitation. T 1 of each sample was measured using an inversion recovery sequence with repetition time (TR)=4000 ms and inversion times of 50, 200, 500, 800, 1000, 1200, 1500, and 2000 ms. Other scan parameters were: field of view=125×200 mm^2; acquisition matrix=115×192; readout bandwidth=965 Hz/pixel; slice thickness=5 mm; all images were acquired in the coronal orientation.
For data analysis the raw data of signal intensity versus TI were fit to the equation: Signal intensity=abs(A*(1−2*exp(−R1*TI))+C, where R1=1/T1. Variables A and C are free parameters of the model. The confidence interval was determined statistically; R2 indicates goodness of fit. The TI corresponding to the lowest signal intensity (TInull) is an indication of the T1 value; this relationship can be estimated by the equation: T1=TInull/ln(2). T1 values determined using the results of the equation fit and the null point relationship are listed in Table 2. Signal intensity, a quantitative metric of relative brightness, was measured with a circular region-of-interest within each sample.

The test system of data set [4] is MCF-7 cells. Briefly: Intracellular Gd by ICP-MS of agarose phantoms with embedded cells. In kind it is cell-based, human. To be noted: 48 hours after transfection.
Description: Sections of agarose phantoms with embedded cells were analyzed by ICP-MS.

Usually viability stands for the share of living cells, or the viability signal relative to a control. Low readings indicate a greater loss of cells, high ones better survival.

Description for PC-3M cells: All cell culture reagents were purchased from Mediatech Inc. unless otherwise specified. […] Both cell lines were maintained at 37° C. with 5% CO2 in RPMI 1640 media supplemented with fetal bovine serum (10%), L-glutamine (2 mM), HEPES (10 mM), penicillin (100 I.U./ml), streptomycin (100 μg/ml). […] PC-3M cells were further supplemented with G418 sulfate (0.15 mg/ml). For treatment, cells were washed with phosphate buffered saline solution (PBS) and placed in serum free RPMI 1640 for 1-2 hours. Then cells were treated with TiO2 nanoparticles (333 nM) coated with or without ARS (60 μM), and/or ODN (160 μM) for one hour. […]
After treatment and washing, cells were trypsinized, collected in FBS supplemented medium, and brought to a single cell suspension. […] Samples were then taken to the Northwestern University Flow Cytometry Core Facility of the Robert H. Lurie Cancer Center to be analyzed or sorted on the DakoCytomation MoFlo Flow Cytometer (Dako). […]
Labeling the nanoparticles, however, allowed one to screen the treated cells simultaneously for nanoparticle uptake (by ARS fluorescence) and for viability (by use of fluorescent cell-impermeable dye). […] Flow cytometry was then used to quantify both the extent of nanoparticle uptake within the cell population, and the cells' ability to exclude cell-impermeable DAPI as an indicator of cell viability.

For `O=C1c2ccccc2C(=O)c2c1cc(S(=O)(=O)O)c(O)c2O` [ARS, 1,2 dihydroxyanthraquinone-3-sulfonate], the “plasmid DNA cleavage upon light exposure” value in data set [1] (75 watt halogen bulb, 5-10 minutes) is given as “increase in the presence of nicked plasmid”.

On to `CC(C)OCC1CO1` (centres unmarked) [GIE, glycidyl isopropyl ether], for which, in data set [1] (150W halogen bulb, 5 minutes, three replicate experiments), the “plasmid DNA cleavage upon light exposure” value is listed as “not cleaved”.

For the molecule `OO` [H2O2, hydrogen peroxide], the reduction in viability entry in the data set on PC-3M cells is reported as “approximately 54%”.

`COc1cccc2c1C(=O)c1c(O)c3c(c(O)c1C2=O)C[C@@](O)(C(=O)CO)C[C@@H]3O[C@H]1C[C@H](N)[C@H](O)[C@H](C)O1` [free doxorubicin, Doxorubicin]: the viability at 4 days, 1.72 μM in the data set “in vitro” stood at 79.6%. Further, the subcellular localization entry in the data set with MCF-7 cells [2] is “predominantly located in the cell nucleus”.

For the molecule “PGA-1,6-hexanediamine-(Gd-DOTA)-dopamine conjugate”, the “T1 value, Equation method” value in data set [3] (5 × 10^5 cells) was found to be 1799; in data set [3] (5 × 10^6 cells), 1625. Besides, the “T1 value, Null point method” value in data set [3] (5 × 10^5 cells) was 1436; in data set [3] (5 × 10^6 cells), 1235. Further, the Signal intensity is given as 33 in data set [3] (5 × 10^5 cells, inversion time 1000 ms) and 71 in data set [3] (5 × 10^6 cells, inversion time 1000 ms). Further, in data set [3] (T1-weighted images, inversion time 1000 ms, 24 or 48 hours after treatment), the “T1-weighted signal enhancement of treated cells” value was “no T1-weighted enhancement”. For the same molecule, the “intracellular concentration of Gd (average)” value in the data set with MCF-7 cells [4] (5×10^6 cells, ICP-MS) is 0.75 µM. In addition, the “Gd retention relative to Gd in cell media” value with MCF-7 cells [4] is reported as 0.5%.
